Columns and labels:
[1] = system: human breast cancer (MDA-MB-436) cell line; experiment: Mouse CDX tumor model (MDA-MB-436 subcutaneous xenograft); assay type: in vivo
Procedure: Test Objective: The efficacy of the compounds was evaluated in a subcutaneous xenograft model of human breast cancer (MDA-MB-436) cell line in mice.
(§1) Test Compounds: Olaparib, Compound 1
Experimental Animals: Female NOD SCID mice, 4-5 weeks old, purchased from Nanjing Jicui.
(§2) Housing and Management: The experimental animals were housed in SPF-grade, temperature- and humidity-controlled clean rooms, using individually ventilated cages (IVC) with no more than 5 mice per cage. Temperature/humidity was controlled within the range of (23±3)° C./40-70%. Feed and water: SPF-grade mouse feed, sterilized by cobalt-60 irradiation. Drinking water was ultrafiltered and autoclaved. Animals had free access to sterile food and water. Animal identification: ear tags.
Tumor Cell Line and Tumor Model: MDA-MB-436 cells (Nanjing Cobioer Biotechnology Co., Ltd., Cat. No: CBP60385) were cultured in vitro in DMEM complete medium containing 10% fetal bovine serum, 1% penicillin-streptomycin, 1% insulin, and 16 μg/mL glutathione (37° C., 5% CO2). When the cells met the requirements for the in vivo efficacy experiment, they were collected, counted, and prepared into a PBS cell suspension. Each mouse (5-6 weeks old NOD SCID) was inoculated subcutaneously on the right flank with 0.9×10^7 cells. Tumor volume was measured and calculated three times a week after inoculation. When the tumor volume reached approximately 200-300 mm^3, the mice were grouped for administration.
Experimental Groups: The experiment was divided into the following groups: vehicle control group; Olaparib 100 mg/kg group; Compound 1 0.1 mg/kg group; Compound 1 0.3 mg/kg group; and Compound 1 1.0 mg/kg group. All groups were administered orally by gavage once daily. […] After 28 days of administration, the tumor volume was used to calculate the tumor growth inhibition rate (TGI %), and the tumor inhibition effect was statistically analyzed using software such as Excel, etc.

[2] = system: peripheral blood reticulocytes; experiment: Effect of compound on rat reticulocytes; assay type: in vivo; details: 4 days
Procedure: Test Objective: The effect of the compound on peripheral blood reticulocytes was evaluated to determine its impact on bone marrow hematopoietic function.
as §1
as §2, with “Experimental Animals: Male Sprague Dawley rats were purchased from Beijing Charles River Laboratory Animal Technology Co., Ltd. Housing” for “Housing”, “rats” for “mice”, “rat” for “mouse”
Experimental Method: The experiment was divided into the following 5 groups: vehicle control group; Olaparib 100 mg/kg; Compound 1 0.1 mg/kg; Compound 1 0.3 mg/kg; and Compound 1 1.0 mg/kg. All treatments were administered orally by gavage once daily for 4 days. Blood samples were collected before and after treatment to measure peripheral blood reticulocyte counts.

O=C(c1cc(Cc2n[nH]c(=O)c3ccccc23)ccc1F)N1CCN(C(=O)C2CC2)CC1 [Olaparib, reference compound]
Tumor Growth Inhibition Rate (TGI) ([1]; 100 mg/kg oral once daily, 28 days): 89% | Body weight vs vehicle control group ([1]; MDA-MB-436 model, all treatment groups): no significant difference | Reticulocyte Inhibition Rate ([2]; 100 mg/kg oral once daily): 91.6% | Effect on peripheral blood reticulocytes (in words) ([2]; 100 mg/kg, p<0.01): significantly reduced
